Assay results from ChEMBL document CHEMBL1139424, “Design, synthesis, and acetylcholinesterase inhibitory activity of novel coumarin analogues” (Bioorg Med Chem, 2008).

Target: Acetylcholinesterase (Electrophorus electricus, UniProt O42275)
Assay: Inhibition of Electrophorus electricus brain AChE by Ellman's method

Acetylcholinesterase, sequence (O42275 whole entry): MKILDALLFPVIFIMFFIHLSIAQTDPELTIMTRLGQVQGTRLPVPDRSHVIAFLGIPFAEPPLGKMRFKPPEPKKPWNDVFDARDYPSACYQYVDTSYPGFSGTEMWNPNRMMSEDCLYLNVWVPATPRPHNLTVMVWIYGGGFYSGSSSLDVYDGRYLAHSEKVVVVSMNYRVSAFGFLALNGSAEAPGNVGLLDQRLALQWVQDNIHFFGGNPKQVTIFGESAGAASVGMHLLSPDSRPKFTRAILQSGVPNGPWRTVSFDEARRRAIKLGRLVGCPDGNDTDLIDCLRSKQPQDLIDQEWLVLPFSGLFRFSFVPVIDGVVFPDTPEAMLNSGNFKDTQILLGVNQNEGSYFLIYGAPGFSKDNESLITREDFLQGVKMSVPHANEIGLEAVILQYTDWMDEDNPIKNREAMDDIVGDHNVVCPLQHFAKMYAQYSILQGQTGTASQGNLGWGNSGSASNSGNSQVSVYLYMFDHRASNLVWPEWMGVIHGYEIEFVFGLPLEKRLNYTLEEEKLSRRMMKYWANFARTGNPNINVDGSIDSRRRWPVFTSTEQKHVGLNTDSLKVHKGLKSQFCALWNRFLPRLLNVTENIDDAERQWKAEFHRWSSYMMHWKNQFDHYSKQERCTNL

Structure (SMILES) | IC50
Cc1ccc2oc(=O)cc(N3CCOCC3)c2c1 | 875 µM
O=C(c1cc2ccccc2oc1=O)N1CCOCC1 | 101 µM
COc1ccc(N2CCN(C(=O)c3cc4ccccc4oc3=O)CC2)cc1 | 7.5 µM
COc1ccccc1N1CCN(C(=O)c2cc3ccccc3oc2=O)CC1 | 11 µM
O=C(c1cc2ccccc2oc1=O)N1CCN(c2ccc(Cl)cc2)CC1 | 98 µM
O=C(c1cc2ccccc2oc1=O)N1CCN(c2cc(Cl)ccc2Cl)CC1 | 14 µM
O=C(c1ccccc1)N1CCN(C(=O)c2cc3ccccc3oc2=O)CC1 | 15 µM
O=C(c1ccc(Cl)cc1)N1CCN(C(=O)c2cc3ccccc3oc2=O)CC1 | 21 µM
COc1ccccc1N1CCN(c2cc(=O)oc3ccc(C)cc23)CC1 | 249 µM
O=C(c1ccc([N+](=O)[O-])cc1)N1CCN(C(=O)c2cc3ccccc3oc2=O)CC1 | 34 µM
Cc1ccc2oc(=O)cc(N3CCN(c4ccccc4)CC3)c2c1 | 4.5 µM
Cc1ccc2oc(=O)cc(N3CCN(c4cc(Cl)ccc4Cl)CC3)c2c1 | 827 µM
Cc1ccc(C(=O)N2CCN(c3cc(=O)oc4ccc(C)cc34)CC2)cc1 | 5.3 µM
Cc1ccc2oc(=O)cc(N3CCN(C(=O)c4ccccc4)CC3)c2c1 | 7.4 µM
Cc1ccc2oc(=O)cc(N3CCN(C(=O)c4ccc(Cl)cc4)CC3)c2c1 | 16 µM
O=C(c1cc2ccccc2oc1=O)N1CCN(c2ccccc2)CC1 | 9.3 µM
Cc1ccc2oc(=O)cc(N3CCN(C)CC3)c2c1 | 901 µM
O=c1cc(Cl)c2cc(CN3CCN(c4ccccc4)CC3)ccc2o1 | 19 µM
Cc1ccc(C(=O)N2CCN(C(=O)c3cc4ccccc4oc3=O)CC2)cc1 | 18 µM
O=C(c1ccccc1Cl)N1CCN(C(=O)c2cc3ccccc3oc2=O)CC1 | 26 µM
COc1ccc(N2CCN(c3cc(=O)oc4ccc(C)cc34)CC2)cc1 | 18 µM
Cc1ccc(N2CCN(C(=O)c3cc4ccccc4oc3=O)CC2)cc1 | 7.6 µM
Cc1ccccc1N1CCN(C(=O)c2cc3ccccc3oc2=O)CC1 | 6.7 µM
Cc1ccc2oc(=O)cc(N3CCN(c4ccccc4C)CC3)c2c1 | 7.9 µM
Cc1ccc2oc(=O)cc(N3CCN(c4ccc(Cl)cc4)CC3)c2c1 | 808 µM
Cc1ccc2oc(=O)cc(N3CCN(C(=O)c4ccccc4Cl)CC3)c2c1 | 21 µM
Cc1ccc(N2CCN(c3cc(=O)oc4ccc(C)cc34)CC2)cc1 | 61 µM
